Consider four molecules from patent US10010516B2, “Method for regulating retinal endothelial cell viability” (The University of Tennessee Research Foundation, priority 2012, dated 2018).

Entries after “also recorded” stand apart in the source; their conditions may differ.

The subject of one data set is Y79 retinoblastoma cells. Description: Cell death ELISA in Y79 retinoblastoma cells. The class given is cell-based, human. The following applies: melphalan 0.8, 1 or 4 μg/mL tested. (In general: An ELISA detects its analyte on a solid surface through an enzyme-linked reagent.)
The subject of another data set is NF-κB. Description: Western blot of phospho-NF-κB / total NF-κB in RECs. The class given is cell-based, human. The following applies: melphalan 4 μg/mL. The protocol:
Western blotting. After appropriate treatments and rinsing with cold phosphate-buffered saline, REC were lysed in the lysis buffer containing the protease and phosphatase inhibitors and scraped into the tubes. Equal amounts of protein from the cell or tissue extracts were separated on the pre-cast tris-glycine gel (Invitrogen, Carlsbad, Calif.), blotted onto a nitrocellulose membrane. After blocking in TBST (10 mM Tris-HCl buffer, pH 8.0, 150 mM NaCl, 0.1% Tween 20) and 5% (w/v) BSA, the membrane was treated with NF-κB, Phospho-NF-κB p38^MAPK, Phospho-p38^MAPK antibodies (1:500) followed by incubation with horseradish peroxidase labeled secondary antibodies. The antigen-antibody complexes were detected using chemilluminescence reagent kit (Thermo Scientific).
Transfections. REC were transfected with ICAM-1 siRNA, TNF-α siRNA, or NF-κB siRNA at a final concentration of 20 nM using Lipofectamine™ RNAiMAX Transfection Reagent according to the manufacturer's instructions. After transfection, cells were starved in MVGS-free Medium 131 for 24 hours and used as required.
(In western blotting, separated proteins are transferred to a membrane and probed.)

Data set [1] deals with RECs.
Data set [2] has as its system RECs. The following applies: melphalan 4 μg/mL; cited from earlier work.
Another data set relates to p53. Nature of the data set: Immunoblot of phosphorylated and total p53 in RECs. The class given is cell-based, human.
In the next data set the test system is paxillin. Nature of the data set: Immunoblot of paxillin (Y118) phosphorylation in irradiated RECs. The following applies: irradiated RECs 30 Gy, 24 hours, P<0.05. Format: cell-based, human.
For a further data set, the system named is ICAM-1. Nature of the data set: ICAM-1 ELISA / Western blot in RECs treated with melphalan. Format: cell-based, human. To be noted: TNF-α siRNA or etanercept + melphalan.

In the case of `N[C@@H](Cc1ccc(N(CCCl)CCCl)cc1)C(=O)O` [melphalan], the “apoptosis of Y79 retinoblastoma cells” value in the data set on Y79 retinoblastoma cells is 4 μg/mL produced maximal apoptosis and best induces apoptosis at 4 μg/mL. In the data set with NF-κB, the “induction of NF-κB phosphorylation” value was “time-dependent” and the “time of maximum increase in NF-κB Ser536 phosphorylation” value amounted to 30 min. In the data set with RECs [1] (melphalan 4 μg/mL, 24 hours), the “DNA fragmentation in RECs” value is listed as “did increase DNA fragmentation”. The “increase in REC death” value with RECs [2] is reported as “greater than 6 fold”.
With `OCc1ccc(-c2ccc(-c3ccc(CO)s3)o2)s1` [RITA], the p53 accumulation result with p53 (RITA 10 μM for four hours vs untreated RECs, P<0.05) is listed as “significantly enhanced”.
`Oc1ccc(-c2nc(-c3ccncc3)c(-c3ccc(F)cc3)[nH]2)cc1` [SB202190]: the “effect on RITA-induced p53 accumulation” value in the data set on p53 (concomitant treatment with RITA, P>0.05) is on record as “did not significantly alter”. Also, in the data set on paxillin, the “phosphorylation of paxillin at Y118” value is reported as “significantly reduced”.
With etanercept, the “melphalan-induced ICAM-1 levels with TNF-α inhibition” value with ICAM-1 is given as “neither TNF-α siRNA nor etanercept could reduce ICAM-1 levels; also recorded: Neither TNFα siRNA nor etanercept reduced ICAM-1 levels”. Moreover, the “REC apoptosis after melphalan treatment (etanercept)” value in the data set with RECs [1] (etanercept + melphalan) is reported as “did not reach statistical significance”.
